Measurements from patent US20220204473A1, “COMPOUND AS IRAK INHIBITOR” (SHANGHAI MEIYUE BIOTECH DEVELOPMENT CO., LTD., priority 2018, published 2022).

Key:
[1] = tested on: TNF-α release in LPS-induced Balb/c female mice; experiment: Inhibition of TNF-α release in LPS-induced Balb/c female mice; format: in vivo, mouse; design: concentration or dose not given beside the values; details: oral gavage 5 h before LPS induction, serum 1.5 h after stimulation
Description: In the normal control groups, the animals received an intraperitoneal injection of normal saline (10 mL/kg) and in the model groups, the animals received LPS stimulation (Sigma CAT #L2630, i.p., 10 mL/kg, 0.2 mg/kg). During the assay, to the test compounds, DMSO, Solutol and 10 mM PBS were sequentially added to prepare a solution or suspension of required concentration for administration. For the vehicle, DMSO, Solutol and 10 mM PBS were mixed in a volume ratio of 5:15:80. In each of the groups, the animals were administered through oral gavage (10 mL/kg) 5 h before LPS (or saline) stimulation at predetermined doses, and euthanized with CO2 at 1.5 h after the stimulation for cardiac blood collection. The whole blood was not anticoagulated, incubated in wet ice for 1.5 h, and centrifuged at 2000×g at 4° C. for 10 min to separate the serum. The serum was frozen at −80° C. for TNF-α assay. Quantification of the TNF-α was done with TNF-α ELISA kit according to the manufacturer's instruction.

[2] = Stability in rat liver microsomes; format: in vitro ADME; details: for half-life at 1 μM: pH 7.4, ∞ = no obvious metabolism found during assay, read-out: Stability test in liver microsomes t1/2, Rat; for Stability test in liver microsomes t1/2, Rat: ∞ = no obvious metabolism found during assay
Description: (§1) 1. Preparation of buffer C:
(§2) Buffer A: 1.0 L of 0.1 M monopotassium phosphate buffer (containing 1.0 mM EDTA);
(§3) Buffer A: 1.0 L of 0.1 M dipotassium phosphate buffer (containing 1.0 mM EDTA);
(§4) Buffer C: Buffer A was added to 700 mL of buffer B until pH reached 7.4.
(§5) The test compound and the reference were separately dissolved in DMSO to give 10 mM stocks.
(§6) 500 μM solution: 10 μL of 10 mM stock solution was added to 190 μL of acetonitrile;
(§7) 1.5 μM dosing solution (in liver microsome solution):
(§8) 18.75 μL of 20 mg/mL liver microsomes were added to 479.75 μL of buffer C, followed by 1.5 μL of 500 μM solution. The mixture was gently shaken to mix well.
(§9) NADPH was weighed, to which an appropriate amount of buffer C was added to prepare a 6 mM NADPH solution.
(§10) 5. 30 μL of 1.5 μM dosing solution was added to wells of a 96-well plate set for different time points (0 min, 5 min, 15 min, 30 min, 45 min) in duplicate.
(§11) 6. Preparation of 0 min samples: 135 μL of acetonitrile (containing internal standard) was added to the 0 min wells, followed by 15 μL of 6 mM NADPH solution.
(§12) 7. The 96-well plate containing 1.5 μM dosing solution and NADPH solution were preheated for 5 min in a water bath at 37° C.
(§13) 8. 15 μL of pre-heated 6 mM NADPH solution was added to wells set for 5 min, 15 min, 30 min and 45 min to start the reaction.
(§14) 9. At time points of 5 min, 15 min, 30 min and 45 min, the reaction was terminated by adding 135 μL of acetonitrile (containing internal standard). The mixtures were vortexed for 10 min and centrifuged at 5594×g for 15 min (Thermo Multifuge×3R).
(§15) 10. 50 μL of the supernatant was transferred to wells of a 96-well plate containing 50 μL of water. The samples were mixed and finally subjected to LC-MS/MS analysis.

[3] = Stability in human liver microsomes; format: in vitro ADME; details: for half-life at 1 μM: pH 7.4, ∞ = no obvious metabolism found during assay, read-out: Stability test in liver microsomes t1/2, Human
Description: as §1, §2, §3, §4, §5, §6, §7, §8, §9, §10, §11, §12, §13, §14, §15

[4] = Stability in mouse liver microsomes; format: in vitro ADME; details: for half-life at 1 μM: pH 7.4, ∞ = no obvious metabolism found during assay, read-out: Stability test in liver microsomes t1/2, Mouse
Description: as §1, §2, §3, §4, §5, §6, §7, §8, §9, §10, §11, §12, §13, §14, §15

human IRAK4 = molecular target: T1, human IRAK4 (Homo sapiens, UniProt Q9NWZ3); experiment: IRAK4 MSA (Mobility-Shift Assay) at Km ATP; format: biochemical; details: GST-IRAK4 1 nM, ATP 37 μM (Km); read-out: IC50 for inhibiting human IRAK4 kinase
T1 construct: purchased Cama (so in the source)
T1 sequence (Q9NWZ3 1-460): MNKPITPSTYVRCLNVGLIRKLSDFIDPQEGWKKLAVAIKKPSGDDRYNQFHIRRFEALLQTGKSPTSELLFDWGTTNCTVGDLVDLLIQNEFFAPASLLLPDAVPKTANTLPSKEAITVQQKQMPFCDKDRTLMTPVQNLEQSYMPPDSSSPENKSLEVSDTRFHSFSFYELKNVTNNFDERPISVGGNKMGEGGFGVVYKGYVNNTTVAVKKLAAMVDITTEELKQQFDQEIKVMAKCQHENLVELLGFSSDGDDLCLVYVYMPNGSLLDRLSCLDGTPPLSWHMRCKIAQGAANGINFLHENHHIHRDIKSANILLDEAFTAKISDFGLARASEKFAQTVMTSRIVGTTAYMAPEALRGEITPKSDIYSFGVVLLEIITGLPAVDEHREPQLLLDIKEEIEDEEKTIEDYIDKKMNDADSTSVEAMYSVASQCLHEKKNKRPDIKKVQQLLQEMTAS
Description: A recombinant fusion protein of N-terminal GST (glutathione-S-transferase) and human IRAK4 was used as enzyme (GST-IRAK4, kinase IRAK4 (Cama)) at a final concentration of 1 nM; ATP (Sigma) was at a final concentration of 37 μM; the substrates used for the kinase reaction were a 5-FAM (5-carboxyfluorescein)-labeled polypeptide (5-FAM-[…]-COOH) and a substrate peptide FAM-P8 (GL Biochem) at final concentrations of […].
In this assay, 500 μM solutions of the compounds were prepared in 100% DMSO, and serially 4-fold diluted to the 10th concentration gradient with 100% DMSO, followed by a 10-fold dilution in the compound buffer (50 mM HEPES. pH 7.5, 0.00015% Brij-35) to give intermediate dilutions of the compounds at a final concentration of 10 μM-0.04 nM containing 10% DMSO respectively, 5 μL of the dilutions were transferred into a black 384-well plate respectively.
IRAK4 was diluted to 2.5 nM in the kinase buffer (50 mM HEPES, pH 7.5, 0.00015% Brij-35, 2 mM DTT). 10 μL of the IRAK4 dilution was transferred to the 384-well plate and co-incubated with the compound for 10-15 min.
The substrate and ATP were diluted to 12.5 μM and 92.5 μM with reaction buffer (50 mM HEPES, pH 7.5, 0.00015% Brij-35, 10 mM MgCl2), respectively. 10 μL of the dilutions were transferred to a 384-well plate and incubated at 28° C. for 1 h respectively. The reaction was terminated by adding 25 μL of 50 mM EDTA to the 384-well plate.
The inhibition rates of IRAK4 by the compounds were calculated by measuring the rate of phosphorylated substrate using a Caliper EZ Reader (PerkinElmer) and the IC50 values were calculated by XL-fit software.

[5] = ∞ = no obvious metabolism found during assay

Structure (SMILES)	half-life at 1 μM [2]	half-life at 1 μM [3]	half-life at 1 μM [4]	IC50 (human IRAK4)	Stability test in liver microsomes t1/2, Human [3, 5]	Stability test in liver microsomes t1/2, Mouse [4, 5]	Inhibition rate of TNF-α [1]	Stability test in liver microsomes t1/2, Rat [2]
COc1cc2nn([C@H]3CC[C@@](C)(O)CC3)cc2cc1NC(=O)c1cccc(C(F)(F)F)n1 [MY-004-126-2]		25700 min	802 min	1 nM			94.11%	∞
COc1cc2nn([C@H]3CC[C@H](O)CC3)cc2cc1NC(=O)c1cccc(C(F)(F)F)n1 [MY-004-127-1]	306 min	770 min	46100 min	5.3 nM			89.29%	

Second part, led by results:

half-life at 1 μM [2]	half-life at 1 μM [3]	half-life at 1 μM [4]	IC50 (human IRAK4)	Stability test in liver microsomes t1/2, Human [3, 5]	Stability test in liver microsomes t1/2, Mouse [4, 5]	Structure (SMILES)	Inhibition rate of TNF-α [1]	Stability test in liver microsomes t1/2, Rat [2]
292 min	2140 min	564 min	6.8 nM			CN(C)c1cc2nn([C@H]3C[C@H](C(C)(C)O)C3)cc2cc1NC(=O)c1cccc(C(F)(F)F)n1 [MY-004-089]	91.27%	
398 min	469 min	354 min	2.7 nM			COc1cc2nn([C@H]3CC[C@](C)(O)CC3)cc2cc1NC(=O)c1cccc(C(F)(F)F)n1 [MY-004-126-1]	94.43%	
250 min		283 min	1.9 nM	∞		CN(C)c1cc2nn([C@H]3CC[C@H](O)CC3)cc2cc1NC(=O)c1cccc(C(F)(F)F)n1 [MY-004-153]	88.42%	
	3240 min		4.2 nM		∞	CC(C)(O)c1cc2nn([C@H]3CC[C@](C)(O)CC3)cc2cc1NC(=O)c1cccc(C(C)(F)F)n1 [MY-004-165]	88.99%	∞
